Four molecules from ChEMBL document CHEMBL5518240 (J Med Chem, 2024) can be followed below.

Molecules are shown by their SMILES. pIC50, pKd: −log10 of the molar value. Calls of active or inactive are those of the source. The calls are words filed in the database; no cut-off is given here.

The subject of experiment [1] is VCaP. In words: Reduction in KLK3 gene expression in AR positive human VCaP cells assessed as reduction in mRNA level at 1000 nM measured after 6 hrs by qRT-PCT analysis. The format is functional, cell-based.
Experiment [2] deals with CWR22R. In words: Reduction in AR gene expression in AR positive human 22Rv1 cells assessed as reduction in mRNA level at 1000 nM measured after 6 hrs by qRT-PCT analysis. It counts as functional, cell-based.
For experiment [3], the system named is CWR22R. In words: Antiproliferative activity against AR positive human 22Rv1 cells assessed inhibition of cell growth measured after 4 days by CellTiter-Glo Luminescent cell viability assay. The format is functional, cell-based. The following applies: 22Rv1, 96 h. On the technique in general: ATP-based viability assays read luminescence as a measure of living cells.

The subject of experiment [4] is LNCaP. In words: Reduction in KLK3 gene expression in AR positive human LNCaP cells assessed as reduction in mRNA level at 1000 nM measured after 6 hrs by qRT-PCT analysis. It counts as functional, cell-based.
The subject of experiment [5] is VCaP. In words: Reduction in c-Myc gene expression in AR positive human VCaP cells assessed as reduction in mRNA level at 1000 nM measured after 6 hrs by qRT-PCT analysis. It counts as functional, cell-based.
Experiment [6] has as its system VCaP. The experiment in a line: Antitumor activity against human VCaP cells xenografted in CB17 SCID mouse model assessed as tumor growth inhibition at 20 mg/kg, po qd scheduled 5 days in a week measured on day 63. The following applies: 1512 h, time 63 day, read-out: TGI. It counts as functional. On the technique in general: A xenograft is tissue or cells of one species grown in another, often human tumour cells in immunodeficient mice.

Experiment [7] has as its system LNCaP. In words: Antiproliferative activity against AR positive human LNCaP cells assessed inhibition of cell growth measured after 4 days by CellTiter-Glo Luminescent cell viability assay. The format is functional, cell-based. Particulars: 96 h.
The target of experiment [8] is Bromodomain-containing protein 4 (Homo sapiens, UniProt O60885). In words: Binding affinity to BRD4 (unknown origin) by SPR assay.
In experiment [9] the test system is CWR22R. In words: Reduction in KLK3 gene expression in AR positive human 22Rv1 cells assessed as reduction in mRNA level at 1000 nM measured after 6 hrs by qRT-PCT analysis. It counts as functional, cell-based.
For experiment [10], the system named is CWR22R. In words: Reduction in c-Myc gene expression in AR positive human 22Rv1 cells assessed as reduction in mRNA level at 1000 nM measured after 6 hrs by qRT-PCT analysis. The format is functional, cell-based.
The test system of experiment [11] is LNCaP. In words: Reduction in c-Myc gene expression in AR positive human LNCaP cells assessed as reduction in mRNA level at 1000 nM measured after 6 hrs by qRT-PCT analysis. It counts as functional, cell-based.
The subject of experiment [12] is LNCaP. The experiment in a line: Reduction in AR gene expression in AR positive human LNCaP cells assessed as reduction in mRNA level at 1000 nM measured after 6 hrs by qRT-PCT analysis. It counts as functional, cell-based.
Experiment [13] concerns VCaP. The experiment in a line: Reduction in AR gene expression in AR positive human VCaP cells assessed as reduction in mRNA level at 1000 nM measured after 6 hrs by qRT-PCT analysis. The format is functional, cell-based.
The test system of experiment [14] is VCaP. In words: Antiproliferative activity against AR positive human VCaP cells assessed inhibition of cell growth measured after 4 days by CellTiter-Glo Luminescent cell viability assay. The format is functional, cell-based. Particulars: 96 h.
In experiment [15] the test system is VCaP. In words: Antitumor activity against human VCaP cells xenografted in CB17 SCID mouse model assessed as tumor growth inhibition at 30 mg/kg, po qd scheduled 5 days in a week measured on day 63. It counts as functional. The following applies: 1512 h, time 63 day, read-out: TGI.
For experiment [16], the target named is T1, Protein cereblon/Histone acetyltransferase p300 (Homo sapiens, UniProt Q09472+Q96SW2). The experiment in a line: PROTAC activity at p300/CRBN in human VCaP cells assessed as protein degradation incubated for 4 hrs by Western blot analysis. The format is cell-based. On the technique in general: A western blot detects proteins with antibodies after separation by electrophoresis.

Experiment [17] concerns the target T1, Protein cereblon/Histone acetyltransferase p300. In words: PROTAC activity at p300/CRBN in human VCaP cells assessed as maximal protein degradation at 1 uM incubated for 4 hrs by Western blot analysis relative to control. The format is cell-based.
Target sequence in this assay (Q09472 2-2414 limits assumed): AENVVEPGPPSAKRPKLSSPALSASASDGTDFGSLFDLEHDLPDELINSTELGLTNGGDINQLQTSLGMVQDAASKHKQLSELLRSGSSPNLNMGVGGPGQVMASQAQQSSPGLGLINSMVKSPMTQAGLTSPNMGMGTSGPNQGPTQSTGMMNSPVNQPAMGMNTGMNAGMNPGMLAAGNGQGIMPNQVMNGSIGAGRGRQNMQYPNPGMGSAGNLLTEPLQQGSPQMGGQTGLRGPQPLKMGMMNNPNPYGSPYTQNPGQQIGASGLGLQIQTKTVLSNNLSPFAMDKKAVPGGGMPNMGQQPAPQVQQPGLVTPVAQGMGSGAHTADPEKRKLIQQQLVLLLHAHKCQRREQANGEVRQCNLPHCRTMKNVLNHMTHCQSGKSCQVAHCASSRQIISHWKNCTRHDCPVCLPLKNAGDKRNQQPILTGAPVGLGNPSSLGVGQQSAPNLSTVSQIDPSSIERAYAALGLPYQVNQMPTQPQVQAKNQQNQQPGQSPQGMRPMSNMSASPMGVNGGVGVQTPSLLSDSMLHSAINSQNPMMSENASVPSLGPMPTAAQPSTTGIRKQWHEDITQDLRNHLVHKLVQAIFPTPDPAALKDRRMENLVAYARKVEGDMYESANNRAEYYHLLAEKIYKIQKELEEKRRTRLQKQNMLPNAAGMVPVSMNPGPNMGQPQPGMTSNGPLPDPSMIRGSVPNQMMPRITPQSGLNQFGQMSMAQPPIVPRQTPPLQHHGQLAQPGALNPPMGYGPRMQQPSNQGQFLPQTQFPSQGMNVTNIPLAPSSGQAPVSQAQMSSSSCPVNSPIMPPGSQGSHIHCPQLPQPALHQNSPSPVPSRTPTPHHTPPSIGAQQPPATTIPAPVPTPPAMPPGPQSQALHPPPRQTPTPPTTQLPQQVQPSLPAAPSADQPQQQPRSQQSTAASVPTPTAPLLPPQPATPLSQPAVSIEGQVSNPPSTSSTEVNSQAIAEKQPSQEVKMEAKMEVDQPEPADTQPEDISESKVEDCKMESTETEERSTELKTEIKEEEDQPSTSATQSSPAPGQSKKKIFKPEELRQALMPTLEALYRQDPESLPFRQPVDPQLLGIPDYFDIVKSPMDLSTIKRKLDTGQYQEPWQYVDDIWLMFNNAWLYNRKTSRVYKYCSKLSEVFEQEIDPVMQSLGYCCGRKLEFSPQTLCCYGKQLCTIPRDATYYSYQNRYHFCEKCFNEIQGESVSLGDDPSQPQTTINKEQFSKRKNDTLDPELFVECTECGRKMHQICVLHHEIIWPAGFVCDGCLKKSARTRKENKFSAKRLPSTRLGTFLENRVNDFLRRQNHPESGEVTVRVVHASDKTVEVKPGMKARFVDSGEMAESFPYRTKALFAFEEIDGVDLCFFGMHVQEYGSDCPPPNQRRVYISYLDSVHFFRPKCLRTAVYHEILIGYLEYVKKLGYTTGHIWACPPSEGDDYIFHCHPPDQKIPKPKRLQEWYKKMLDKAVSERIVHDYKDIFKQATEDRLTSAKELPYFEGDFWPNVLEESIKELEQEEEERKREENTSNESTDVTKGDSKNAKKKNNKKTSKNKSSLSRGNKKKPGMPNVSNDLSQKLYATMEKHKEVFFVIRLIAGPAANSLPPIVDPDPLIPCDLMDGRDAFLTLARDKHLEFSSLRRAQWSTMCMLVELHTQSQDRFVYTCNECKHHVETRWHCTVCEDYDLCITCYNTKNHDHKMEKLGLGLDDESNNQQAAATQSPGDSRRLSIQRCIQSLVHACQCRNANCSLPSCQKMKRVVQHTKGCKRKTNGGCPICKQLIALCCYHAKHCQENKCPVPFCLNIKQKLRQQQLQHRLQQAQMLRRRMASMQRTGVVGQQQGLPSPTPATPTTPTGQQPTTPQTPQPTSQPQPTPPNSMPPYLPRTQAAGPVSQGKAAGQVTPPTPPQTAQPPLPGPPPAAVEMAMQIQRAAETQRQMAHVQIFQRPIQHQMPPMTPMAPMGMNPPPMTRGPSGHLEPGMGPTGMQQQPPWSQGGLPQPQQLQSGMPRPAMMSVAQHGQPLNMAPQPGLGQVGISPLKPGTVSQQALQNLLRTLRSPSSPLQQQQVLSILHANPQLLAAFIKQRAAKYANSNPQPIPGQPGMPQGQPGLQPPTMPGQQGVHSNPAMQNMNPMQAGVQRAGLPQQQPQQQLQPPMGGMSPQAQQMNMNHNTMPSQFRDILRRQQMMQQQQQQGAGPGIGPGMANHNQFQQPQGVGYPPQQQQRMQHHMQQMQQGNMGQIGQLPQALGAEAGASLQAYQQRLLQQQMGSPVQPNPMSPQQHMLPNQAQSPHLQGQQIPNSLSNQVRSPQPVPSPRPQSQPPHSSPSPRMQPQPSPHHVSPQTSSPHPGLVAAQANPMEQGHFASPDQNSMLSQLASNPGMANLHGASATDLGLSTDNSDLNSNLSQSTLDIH
Target sequence in this assay (Q96SW2 whole entry partner): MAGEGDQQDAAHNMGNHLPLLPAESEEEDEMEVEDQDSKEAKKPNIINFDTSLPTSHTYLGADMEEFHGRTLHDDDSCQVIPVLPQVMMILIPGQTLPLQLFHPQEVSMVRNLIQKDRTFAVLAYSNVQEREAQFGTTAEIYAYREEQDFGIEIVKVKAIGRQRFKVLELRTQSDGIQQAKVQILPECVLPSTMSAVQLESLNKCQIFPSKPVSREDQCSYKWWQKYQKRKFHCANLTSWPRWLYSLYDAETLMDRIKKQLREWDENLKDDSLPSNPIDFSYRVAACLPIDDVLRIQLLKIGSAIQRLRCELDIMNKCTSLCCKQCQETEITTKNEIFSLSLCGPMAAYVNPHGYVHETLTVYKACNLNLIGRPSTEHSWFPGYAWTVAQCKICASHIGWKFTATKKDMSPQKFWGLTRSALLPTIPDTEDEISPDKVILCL
Experiment [18] shares this target. The experiment in a line: Potency index, ratio of CPBD-409 DC50 to test compound DC50 for PROTAC activity at p300/CRBN in human VCaP cells assessed as protein degradation incubated for 4 hrs by Western blot analysis. It counts as cell-based.
Target sequence in this assay (Q09472 2-2414 limits assumed): as the sequence (Q09472 2-2414 limits assumed) above
Target sequence in this assay (Q96SW2 whole entry partner): as the sequence (Q96SW2 whole entry partner) above
For experiment [19], the target named is T2, Protein cereblon/CREB-binding protein (Homo sapiens, UniProt Q92793+Q96SW2). In words: PROTAC activity at CBP/CRBN in human VCaP cells assessed as protein degradation incubated for 4 hrs by Western blot analysis. The format is cell-based.
Experiment [20] has as its target T2, Protein cereblon/CREB-binding protein. The experiment in a line: Potency index, ratio of […] DC50 to test compound DC50 for PROTAC activity at CBP/CRBN in human VCaP cells assessed as protein degradation incubated for 4 hrs by Western blot analysis. It counts as cell-based.
The target is the same in experiment [21]. The experiment in a line: PROTAC activity at CBP/CRBN in human VCaP cells assessed as maximal protein degradation at 1 uM incubated for 4 hrs by Western blot analysis relative to control. It counts as cell-based.
For experiment [22], the system named is VCaP. The experiment in a line: Reduction in AR gene expression in AR positive human VCaP cells assessed as reduction in mRNA level at 100 nM measured after 6 hrs by qRT-PCT analysis relative to control. The format is functional, cell-based.
Experiment [23] has as its system VCaP. The experiment in a line: Reduction in c-Myc gene expression in AR positive human VCaP cells assessed as reduction in mRNA level at 100 nM measured after 6 hrs by qRT-PCT analysis relative to control. The format is functional, cell-based.
Experiment [24] has as its system LNCaP. In words: Reduction in c-Myc gene expression in AR positive human LNCaP cells assessed as reduction in mRNA level at 100 nM measured after 6 hrs by qRT-PCT analysis relative to control. The format is functional, cell-based.
Experiment [25] relates to LNCaP. The experiment in a line: Reduction in AR gene expression in AR positive human LNCaP cells assessed as reduction in mRNA level at 100 nM measured after 6 hrs by qRT-PCT analysis relative to control. The format is functional, cell-based.
The subject of experiment [26] is CWR22R. In words: Reduction in c-Myc gene expression in AR positive human 22Rv1 cells assessed as reduction in mRNA level at 100 nM measured after 6 hrs by qRT-PCT analysis relative to control. The format is functional, cell-based.
Experiment [27] relates to CWR22R. In words: Reduction in AR gene expression in AR positive human 22Rv1 cells assessed as reduction in mRNA level at 100 nM measured after 6 hrs by qRT-PCT analysis relative to control. It counts as functional, cell-based.

By pIC50 is commonly meant the IC50 on a negative log10 scale, so that one unit is a factor of ten. The low end stands for a high IC50, the high end for a low IC50. As usually defined, the pKd is the negative decadic logarithm of the Kd, by convention in mol/L. A higher pKd goes with a low Kd. For orientation: DC50 means the midpoint of the concentration-degradation curve. For orientation: Emax means the greatest response seen or fitted, relative to the assay's reference.

For `CO[C@H]1CC[C@H](n2c([C@@H]3CCCC(=O)N3c3ccc(F)c(F)c3)nc3cc(-c4c(C)noc4C)ccc32)CC1` [INOBRODIB], the result in experiment [1], in experiment [2], in experiment [4], in experiment [5], in [9] and in experiment [10] was Active. Further, the outcome in [11], in [12] and in experiment [13] was Active. Besides, the figures for the pIC50 in experiment [3], in experiment [7] and in [14] were 6.74, 6.39 and 7.27, respectively. Also, the inhibition in vivo at 20 mg/kg in experiment [6] amounted to 42%. The same molecule gave a pKd in experiment [8] of 6.65.

On to `CC(=O)N1CCc2c(c(N3CCCc4cc(-c5cnn(C)c5)c(C(F)F)cc43)nn2C2CCOCC2)C1`, for which the result in experiment [1], in [2], in [4], in experiment [5], in [9] and in experiment [10] was Active. The outcome in experiment [11], in experiment [12] and in experiment [13] was Active. Besides, the pIC50 in [3] was < 6.00; in experiment [7], 5.15; in [14], 6.67. The inhibition in vivo at 30 mg/kg in [15] came out at 46%.

`CC(=O)N1CCc2c(c(N3CCCc4cc(-c5cnn(C)c5)c(C(F)F)cc43)nn2[C@H]2CC[C@H](CN3CCN(c4cc5c(cc4F)C(=O)N(C4CCC(=O)NC4=O)C5=O)CC3)CC2)C1` (some centres not stated): the DC50 in [16] and in experiment [19] was 1.2 nM throughout. Also, the Emax in [17] and in experiment [21] was 94% throughout. Moreover, the Ratio in experiment [18] and in experiment [20] was 4 throughout.

Turning to `N#Cc1ccc(O[C@H]2CC[C@H](NC(=O)c3ccc(N4CCC(CN5CCN(c6cc7c(cc6F)C(=O)N(C6CCC(=O)NC6=O)C7=O)CC5)CC4)nn3)CC2)cc1Cl` (some centres not stated) [BAVDEGALUTAMIDE], the result in experiment [22] and in experiment [23] was Active. Moreover, the figures for the pIC50 in experiment [3], in experiment [7] and in [14] were 6.50, 6.91 and 6.66, respectively. Besides, the result in experiment [24], in [25], in experiment [26] and in experiment [27] was inactive.
